From patent publication US20030215462A1, “Use of UGT inhibitors to increase bioavailability” (priority 2001, published 2003)
Values joined by “and” are separate entries in the source; they are usually repeats but may differ in a detail not shown here. Equal entries are not always repeated.

Legend:
UGT1A3 = target: T1, UGT1A3 (Homo sapiens, UniProt P35503); assay: Inhibition of raloxifene glucuronidation by recombinant UGT1A3 Supersomes; settings: UGT1A3
T1 sequence (P35503 29-534): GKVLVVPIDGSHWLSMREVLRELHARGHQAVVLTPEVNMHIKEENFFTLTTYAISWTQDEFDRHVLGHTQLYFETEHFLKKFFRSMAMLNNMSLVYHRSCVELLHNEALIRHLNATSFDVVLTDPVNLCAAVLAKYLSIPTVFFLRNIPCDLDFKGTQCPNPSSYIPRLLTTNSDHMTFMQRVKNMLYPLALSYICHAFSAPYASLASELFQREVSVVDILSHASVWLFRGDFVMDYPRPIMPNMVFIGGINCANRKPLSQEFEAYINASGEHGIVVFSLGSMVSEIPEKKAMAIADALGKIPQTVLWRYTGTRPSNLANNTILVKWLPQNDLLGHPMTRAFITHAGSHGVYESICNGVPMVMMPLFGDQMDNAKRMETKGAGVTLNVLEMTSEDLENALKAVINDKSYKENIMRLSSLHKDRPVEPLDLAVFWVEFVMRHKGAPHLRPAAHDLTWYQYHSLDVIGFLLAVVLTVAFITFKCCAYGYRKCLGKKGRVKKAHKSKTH
Description: (§3) Compounds were eluted using a binary solvent gradient system. Solvent A was water brought to pH 8 with NH4OH. Solvent B was methanol. Solvent flow rate was 1 ml/min and the column temperature was maintained at 50° C. Detection was at 280 nm. […] The system was then returned to the initial conditions and equilibrated for 3 min.

[1] = system: UGT enzymes of pooled human jejunum microsomes; assay: Inhibition of raloxifene glucuronidation (G1, G2) in pooled human jejunum microsomes; assay type: biochemical; settings: jejunum HJ61; inhibitor 50 μM
Description: (§1) Compounds were eluted using a binary solvent gradient system. […] Solvent B was methanol. […] Detection was at 280 nm.
Standardized incubations utilized […] microsomal protein, 1 mM UDPGA and a 30 min incubation time.

[2] = system: T2, UGT enzymes of human liver microsomes; assay: Inhibition of 7-HFC glucuronidation in human liver microsomes; assay type: biochemical; settings: for % of control metabolism (SD, n = 3), 7-HFC glucuronidation: 7-HFC 50 μM, human liver microsomes 100 μg/ml, 15 min
T2 construct: percentage of control metabolism, 7-HFC glucuronidation; percentage of control metabolism, 7-HFC glucuronidation

[3] = system: UGT enzymes of human liver microsomes; assay: Inhibition of raloxifene glucuronidation (G1, G2) in human liver microsomes; assay type: biochemical; settings: for % of control metabolism (SD, n = 3), raloxifene glucuronide G1 / % of control metabolism (SD, n = 3), raloxifene glucuronide G2: human liver microsomes 250 μg/ml, 15 min
Description: as §1

[4] = system: UGT enzymes of pooled human jejunum microsomes; assay: Inhibition of 2ME2 glucuronidation (MG1) in pooled human jejunum microsomes; assay type: biochemical; settings: jejunum HJ61, 2ME2 50 μM
Description: (§2) Compounds were eluted using a binary solvent gradient system where solvent A was dilute phosphoric acid (pH 3) and solvent B was 80:20 acetonitrile-methanol. […] Detection was at 280 nm.

UGT1A9 = target: T3, UGT1A9 (Homo sapiens, UniProt O60656); assay: Inhibition of raloxifene glucuronidation by recombinant UGT1A9 Supersomes; settings: UGT1A9
T3 sequence (O60656 26-530): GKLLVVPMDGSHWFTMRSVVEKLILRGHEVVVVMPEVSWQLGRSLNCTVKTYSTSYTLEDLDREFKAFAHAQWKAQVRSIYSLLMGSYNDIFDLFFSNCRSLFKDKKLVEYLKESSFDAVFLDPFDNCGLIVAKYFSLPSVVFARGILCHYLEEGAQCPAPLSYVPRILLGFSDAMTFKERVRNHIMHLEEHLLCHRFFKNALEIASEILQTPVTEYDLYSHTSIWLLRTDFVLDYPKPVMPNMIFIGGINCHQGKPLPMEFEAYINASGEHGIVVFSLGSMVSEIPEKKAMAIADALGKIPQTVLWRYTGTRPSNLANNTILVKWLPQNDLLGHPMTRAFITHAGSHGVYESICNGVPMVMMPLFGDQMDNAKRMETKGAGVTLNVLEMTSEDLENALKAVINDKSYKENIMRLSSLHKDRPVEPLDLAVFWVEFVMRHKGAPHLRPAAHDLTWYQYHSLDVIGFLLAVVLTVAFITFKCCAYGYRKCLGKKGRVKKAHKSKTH
Description: as §3

[5] = system: T4, UGT enzymes of human liver microsomes; assay: Inhibition of estradiol (E2) glucuronidation in human liver microsomes; assay type: biochemical; settings: liver 032101, E2 50 μM
T4 construct: residual metabolism (% of control), E2-17-β-D-glucuronide; other: liver 032101; residual metabolism (% of control), E2-17-β-D-glucuronide
Description: as §2

[6] = system: UGT enzymes of pooled human jejunum microsomes; assay: Inhibition of estradiol (E2) glucuronidation in pooled human jejunum microsomes; assay type: biochemical; settings: jejunum HJ61; E2 50 μM; inhibitor 100 μM
Description: as §2

[7] = system: T5, UGT enzymes of human liver microsomes; assay: Inhibition of estradiol (E2) glucuronidation in human liver microsomes; assay type: biochemical; settings: liver 032101; E2 50 μM; inhibitor 100 μM
T5 construct: residual metabolism (% of control), E2-3-β-D-glucuronide; other: liver 032101; residual metabolism (% of control), E2-3-β-D-glucuronide
Description: as §2

[8] = system: UGT enzymes of human liver microsomes; assay: as above; assay type: biochemical; settings: liver 062101; E2 50 μM; inhibitor 100 μM
Description: as §2

[9] = inhibitor 25 μM, raloxifene 50 μM
[10] = inhibitor 50 μM, raloxifene 50 μM
[11] = inhibitor 100 μM, raloxifene 50 μM
[12] = inhibitor 500 μM, raloxifene 50 μM
[13] = liver lot 032101, inhibitor 50 μM
[14] = liver lot 062101, inhibitor 50 μM
[15] = liver lot 083000, inhibitor 50 μM
[16] = raloxifene 50 μM, inhibitor 25 μM
[17] = raloxifene 50 μM, inhibitor 50 μM
[18] = raloxifene 50 μM, inhibitor 100 μM

With `C=CCc1ccc(O)c(OC)c1` [Eugenol] the “inhibition of raloxifene glucuronidation, in words” value (UGT1A3) was “ineffective”, the “% of control metabolism, raloxifene G1” value [1] was 91 (1) % and the “% of control metabolism, raloxifene G2” value [1] was 96 (5) %. The “% of control metabolism (SD, n = 3), 7-HFC glucuronidation” value ([2]; inhibitor 500 μM) was 63 (1) %, the “% of control metabolism, raloxifene G1” value ([3]; 50 µM) was 39 (0), 41 (3) % and 65 (1), 63 (3) % and 69 (4), 53 (2) % and the “% of control metabolism, raloxifene G2” value ([3]; 50 µM) was 39 (0), 41 (3) % and 65 (1), 63 (3) % and 69 (4), 53 (2) %. The “residual metabolism (% of control), 2ME2 MG1” value ([4]; inhibitor 100 μM) was 104 (4) %, the “inhibition of raloxifene glucuronidation, in words” value (UGT1A9) was “amongst the best inhibitors” and the “residual metabolism (% of control), E2-17-β-D-glucuronide” value ([5]; inhibitor 50 μM) was “obs, 94 (5) %”. The “residual metabolism (% of control), E2-17-β-D-glucuronide” value ([5]; inhibitor 100 μM) was “obs, 89 (6) %”.
In the case of `O=C(O)c1cc(-c2ccc(F)cc2F)ccc1O` [Diflunisal, reference compound], the “% of control metabolism, raloxifene G1” value [1] is reported as 69 (3) %, the “% of control metabolism, raloxifene G2” value [1] is reported as 93 (6) % and the “percentage of control metabolism, 7-HFC glucuronidation” value (“percentage of control metabolism” below) ([2]; inhibitor 100 μM) is reported as 77 (2) %. For the same molecule, the “% of control metabolism (SD, n = 3), 7-HFC glucuronidation” value ([2]; inhibitor 100 μM) was 77 (2) %, the “percentage of control metabolism” value ([2]; inhibitor 200 μM) was 65 (3) % and the “% of control metabolism (SD, n = 3), 7-HFC glucuronidation” value ([2]; inhibitor 200 μM) was 65 (3) %. The “percentage of control metabolism” value ([2]; inhibitor 500 μM) was 37 (1) % and 38 (0) %, the “% of control metabolism (SD, n = 3), 7-HFC glucuronidation” value ([2]; inhibitor 500 μM) was 37 (1), % and 38 (0) % and the “% of control metabolism (SD, n = 3), raloxifene glucuronide G1” value [3, 9] was 63 (3) %. For the same molecule, the “% of control metabolism (SD, n = 3), raloxifene glucuronide G1” value [3, 10] was 43 (1) %, the “% of control metabolism (SD, n = 3), raloxifene glucuronide G1” value [3, 11] was 30 (4) % and the “% of control metabolism (SD, n = 3), raloxifene glucuronide G1” value [3, 12] was 6 (1) %. For the same molecule, the “% of control metabolism (SD, n = 3), raloxifene glucuronide G2” value [3, 9] was 66 (1) %, the “% of control metabolism (SD, n = 3), raloxifene glucuronide G2” value [3, 10] was 45 (2) % and the “% of control metabolism (SD, n = 3), raloxifene glucuronide G2” value [3, 11] was 34 (1) %. The “% of control metabolism (SD, n = 3), raloxifene glucuronide G2” value [3, 12] was 7 (1) %, the “% of control metabolism, raloxifene G1” value [3, 13] was 52 (1) % and the “% of control metabolism, raloxifene G2” value [3, 13] was 54 (0) %. The “% of control metabolism, raloxifene G1” value [3, 14] was 67 (2) %, the “% of control metabolism, raloxifene G2” value [3, 14] was 57 (2) % and the “% of control metabolism, raloxifene G1” value [3, 15] was 43 (1) %. For the same molecule, the “% of control metabolism, raloxifene G2” value [3, 15] was 45 (2) %, the “% of control metabolism, raloxifene G1” value [3, 16] was 63 (3) % and the “% of control metabolism, raloxifene G2” value [3, 16] was 66 (1) %. The “% of control metabolism, raloxifene G1” value [3, 17] was 43 (1) %, the “% of control metabolism, raloxifene G2” value [3, 17] was 45 (2) % and the “% of control metabolism, raloxifene G1” value [3, 18] was 30 (4) %. For the same molecule, the “% of control metabolism, raloxifene G2” value [3, 18] was 34 (1) %, the “residual metabolism (% of control), E2-3-β-D-glucuronide” value [6] was 62 (3), obs % and the “residual metabolism (% of control), 2ME2 MG1” value ([4]; inhibitor 50 μM) was 91 (1) %. For the same molecule, the “residual metabolism (% of control), 2ME2 MG1” value ([4]; inhibitor 100 μM) was 82 (2) %, the “residual metabolism (% of control), E2-3-β-D-glucuronide” value [7] was 49 (1), obs % and the “residual metabolism (% of control), E2-3-β-D-glucuronide” value [8] was 59 (2), obs %.
